# From patent US20090270416A1, “N-OXIDES OF DIARYLUREA DERIVATIVES AND THEIR USE AS Chk1 INHIBITORS FOR THE TREATMENT OF CANCER” (SENTINEL ONCOLOGY LIMITED, priority 2006, published 2009)
# Assays:
# [1] = target: T1, CHK1 (h) (Homo sapiens, UniProt O14757); assay: Chk-1 kinase inhibiting activity (Upstate radiometric assay); format: biochemical
# T1 construct: purchased Upstate Ltd (assay run at Upstate)
# T1 sequence (O14757 1-476): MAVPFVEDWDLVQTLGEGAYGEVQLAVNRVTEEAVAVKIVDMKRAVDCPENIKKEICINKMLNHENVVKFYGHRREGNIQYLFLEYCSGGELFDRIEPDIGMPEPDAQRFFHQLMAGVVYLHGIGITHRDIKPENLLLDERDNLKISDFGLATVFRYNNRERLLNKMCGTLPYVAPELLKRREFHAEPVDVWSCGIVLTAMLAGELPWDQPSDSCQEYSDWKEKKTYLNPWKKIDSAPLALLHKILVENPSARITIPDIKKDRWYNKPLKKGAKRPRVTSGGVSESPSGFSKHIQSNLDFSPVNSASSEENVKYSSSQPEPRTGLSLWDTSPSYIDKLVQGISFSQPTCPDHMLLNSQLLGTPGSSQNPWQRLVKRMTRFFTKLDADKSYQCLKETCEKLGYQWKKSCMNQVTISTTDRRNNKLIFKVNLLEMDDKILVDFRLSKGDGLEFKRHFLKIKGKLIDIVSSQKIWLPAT
# Description: The N-oxide compounds of the invention and their tertiary amine precursors were tested for activity against the Chk-1 kinase.
# The Chk-1 assay was conducted at Upstate Ltd, Gemini Crescent, Dundee Technology Park, Dundee, DD2 1 SW, UK in accordance with the protocol set out below. In a final reaction volume of 25 μl, CHK1 (h) (5-10 mU) is incubated with 8 mM MOPS pH 7.0, 0.2 mM EDTA, 200 μM […], 10 mM MgAcetate and γ-33P-ATP] (specific activity approx. 500 cpm/pmol, concentration as required). The reaction is initiated by the addition of the MgATP mix. After incubation for 40 minutes at room temperature, the reaction is stopped by the addition of 5 μl of a 3% phosphoric acid solution. 10 μl of the reaction mixture is then spotted onto a P30 filtermat and washed three times for 5 minutes in 75 mM phosphoric acid and once in methanol prior to drying and scintillation counting.
# [2] = target: T2, hERG potassium channel (Homo sapiens, UniProt Q12809); assay: Functional hERG assay (patch clamp, HEK-293 cells); format: cell-based; conditions: 5-point dose response, triplicate
# T2 construct: expressed in transfected cells; host or cells: HEK-293
# T2 sequence (Q12809 whole entry): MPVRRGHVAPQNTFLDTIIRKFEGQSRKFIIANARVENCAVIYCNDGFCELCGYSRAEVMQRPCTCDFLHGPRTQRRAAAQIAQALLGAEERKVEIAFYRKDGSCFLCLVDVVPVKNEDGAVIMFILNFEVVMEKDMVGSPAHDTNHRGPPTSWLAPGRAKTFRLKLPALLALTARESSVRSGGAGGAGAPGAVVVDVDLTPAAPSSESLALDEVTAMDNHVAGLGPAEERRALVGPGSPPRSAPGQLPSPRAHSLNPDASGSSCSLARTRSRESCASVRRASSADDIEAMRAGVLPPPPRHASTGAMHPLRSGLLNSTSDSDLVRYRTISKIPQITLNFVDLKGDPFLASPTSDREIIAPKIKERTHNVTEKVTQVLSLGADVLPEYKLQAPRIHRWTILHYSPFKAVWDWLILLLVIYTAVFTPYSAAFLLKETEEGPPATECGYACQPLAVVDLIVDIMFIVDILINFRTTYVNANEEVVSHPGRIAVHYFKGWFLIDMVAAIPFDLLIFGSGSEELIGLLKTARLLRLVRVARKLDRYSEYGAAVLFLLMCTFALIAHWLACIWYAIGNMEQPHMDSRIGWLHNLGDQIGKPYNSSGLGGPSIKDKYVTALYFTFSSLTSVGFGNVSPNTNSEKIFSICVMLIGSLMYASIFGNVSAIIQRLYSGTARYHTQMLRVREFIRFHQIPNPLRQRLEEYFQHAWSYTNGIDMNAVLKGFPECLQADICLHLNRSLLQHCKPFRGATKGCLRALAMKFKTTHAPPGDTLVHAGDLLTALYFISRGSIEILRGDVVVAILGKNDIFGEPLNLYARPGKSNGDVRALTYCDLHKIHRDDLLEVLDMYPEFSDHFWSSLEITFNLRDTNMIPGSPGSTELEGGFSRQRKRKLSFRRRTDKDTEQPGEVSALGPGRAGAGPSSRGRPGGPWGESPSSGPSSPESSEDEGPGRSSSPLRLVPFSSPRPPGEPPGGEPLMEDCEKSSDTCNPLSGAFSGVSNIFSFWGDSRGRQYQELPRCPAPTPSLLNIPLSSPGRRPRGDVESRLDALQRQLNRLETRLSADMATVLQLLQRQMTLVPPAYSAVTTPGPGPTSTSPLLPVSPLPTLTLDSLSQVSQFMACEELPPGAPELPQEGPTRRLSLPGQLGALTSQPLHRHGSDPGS
# Description: The N-oxide compounds of the invention and their tertiary amine precursors were each tested for hERG inhibiting activity using the method of Zhou Z, Gong Q, Ye B, Fan Z, Makielski J C, Robertson G A, January C T. Biophys J. 1998 January; 74(1):230-41.
# Test compounds were tested in triplicate in a 5-point dose response curve on HEK-293 cells stably expressing the hERG potassium channel. Potassium current was measured using the patch clamp technique on a Molecular Devices Patch Express 7000. hERG channels were activated by 2 second pulses to +20 mV from a holding potential of −80 mV, and peak tail currents were recorded upon repolarization to −50 mV. This voltage-clamp pulse protocol was performed continuously during the experiment (vehicle control, test compound, washout, and positive control additions). An interpulse interval of 15 seconds allowed recovery from any residual inactivation. Test compounds were incubated with cells between 3-8 minutes until the current reached a steady state level, defined by a Standard Deviation of 0.01. After the final test compound concentration was tested, test compound was washed out with continuous perfusion of extracellular solution for 3 minutes, followed by application of positive control (10 μM Cisparide).
# Test compounds were diluted in 100% DMSO at 1000× the highest concentration to be tested, vortexed, and sonicated. Visual inspection determined that compounds were completely solubilized. Test compounds were then diluted into glass vials in 100% DMSO for all test concentrations at 1000× the final concentration to be tested and vortexed. Test compounds were then diluted 1:1000 into extracellular solution and vortexed to achieve final concentration for testing. Final DMSO concentration was 0.1% for all concentrations of test compounds, Vehicle (negative) control, and Cisapride (positive) control in extracellular solution. The compositions of the solutions used were as follows:
# Intracellular Soln (mM): KCl 130, EDTA 5, MgCl2 5, HEPES10, Na-ATP 5, pH=7.2 Extracellular Soln (mM): NaCl 137, KCl 4, CaCl2 1.8, MgCl2 1, Dextrose 11, HEPES 10, pH=7.4
# [3] = target: T3, human potassium channel hERG (Homo sapiens, UniProt Q12809); assay: hERG binding activity ([3H] astemizole displacement, HEK-293 membranes); conditions: 1.5 nM [3H] astemizole; for IC50: 60 minutes at 25° C.; for HERG Binding % @ 100 uM (extent of binding): @ 100 uM test compound
# T3 construct: expressed in transfected cells; host or cells: HEK-293
# T3 sequence (Q12809 whole entry): as above
# Description: The abilities of the N-oxide compounds of the invention and their tertiary amine precursors were tested using the assay described below.
# Human recombinant HEK-293 cells stably transfected with a plasmid encoding the human potassium channel hERG were used to prepare membranes in modified HEPES pH 7.4 buffer using standard techniques. A 10 μg aliquot of membrane was incubated with 1.5 nM [^3H] astemizole in the presence of varying concentrations of test compound for 60 minutes at 25° C. The membranes were then filtered and washed three times and the filters were counted to determine the [^3H] astemizole specifically bound. From the counts, the extent of binding of the test compound and, in some cases, the IC50 values of the test compounds, were determined.
# [4] = target: T4, ZAP-70(h) (Homo sapiens, UniProt P43403); assay: Kinase selectivity screen (Upstate); format: biochemical; conditions: 10 μM compound; ATP 15 μM; N = 2
# T4 construct: purchased Upstate
# Description: (§1) The compound of Example 1F was tested (Upstate) against a number of other kinases and the results are set out in Table 5 below.
# [5] = target: T5, CDK2/cyclinE(h) (Homo sapiens, UniProt P24941); assay: Kinase selectivity screen (Upstate); format: biochemical; conditions: 10 μM compound; ATP 120 μM; N = 2
# T5 construct: purchased Upstate
# Description: as §1
# [6] = target: T6, Yes(h) (Homo sapiens, UniProt P07947); assay: Kinase selectivity screen (Upstate); format: biochemical; conditions: 10 μM compound; ATP 45 μM; N = 2
# T6 construct: purchased Upstate
# Description: as §1
# [7] = target: T7, NEK2(h) (Homo sapiens, UniProt P51955); assay: Kinase selectivity screen (Upstate); format: biochemical; conditions: 10 μM compound; ATP 120 μM; N = 2
# T7 construct: purchased Upstate
# Description: as §1
# [8] = target: T8, FGFR1(h) (Homo sapiens, UniProt P11362); assay: Kinase selectivity screen (Upstate); format: biochemical; conditions: 10 μM compound; ATP 200 μM; N = 2
# T8 construct: purchased Upstate
# T8 sequence (P11362 22-822): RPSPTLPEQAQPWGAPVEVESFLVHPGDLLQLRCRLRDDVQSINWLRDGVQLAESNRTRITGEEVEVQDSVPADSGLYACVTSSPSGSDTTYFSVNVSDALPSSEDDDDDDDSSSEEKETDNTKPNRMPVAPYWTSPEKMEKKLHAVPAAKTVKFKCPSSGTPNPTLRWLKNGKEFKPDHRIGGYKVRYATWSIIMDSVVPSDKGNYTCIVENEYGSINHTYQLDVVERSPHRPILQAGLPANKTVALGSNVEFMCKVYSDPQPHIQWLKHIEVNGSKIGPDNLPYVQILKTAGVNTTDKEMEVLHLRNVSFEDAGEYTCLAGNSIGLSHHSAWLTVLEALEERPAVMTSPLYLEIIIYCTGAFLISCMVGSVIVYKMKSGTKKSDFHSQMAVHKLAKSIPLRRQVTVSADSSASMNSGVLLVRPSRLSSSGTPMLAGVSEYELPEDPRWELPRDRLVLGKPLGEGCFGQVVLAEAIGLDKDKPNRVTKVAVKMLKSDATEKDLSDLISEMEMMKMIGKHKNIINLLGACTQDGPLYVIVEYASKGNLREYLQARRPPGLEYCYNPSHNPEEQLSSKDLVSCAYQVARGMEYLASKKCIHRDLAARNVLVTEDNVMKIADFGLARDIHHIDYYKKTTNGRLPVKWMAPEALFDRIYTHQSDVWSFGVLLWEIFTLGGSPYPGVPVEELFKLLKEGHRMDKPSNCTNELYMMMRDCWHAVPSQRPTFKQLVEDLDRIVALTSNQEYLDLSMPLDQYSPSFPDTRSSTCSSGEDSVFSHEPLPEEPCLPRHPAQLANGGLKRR
# Description: as §1
# [9] = target: T9, PDGFRβ(h) (Homo sapiens, UniProt P09619); assay: Kinase selectivity screen (Upstate); format: biochemical; conditions: 10 μM compound; ATP 200 μM; N = 2
# T9 construct: purchased Upstate
# Description: as §1
# [10] = target: T10, Aurora-A(h) (Homo sapiens, UniProt O14965); assay: Kinase selectivity screen (Upstate); format: biochemical; conditions: 10 μM compound; ATP 15 μM; N = 2
# T10 construct: purchased Upstate
# Description: as §1
# [11] = target: T11, Tie2(h) (Homo sapiens, UniProt Q02763); assay: Kinase selectivity screen (Upstate); format: biochemical; conditions: 10 μM compound; ATP 200 μM; N = 2
# T11 construct: purchased Upstate
# Description: as §1
# [12] = target: T12, EGFR(h) (Homo sapiens, UniProt P00533); assay: Kinase selectivity screen (Upstate); format: biochemical; conditions: 10 μM compound; ATP 10 μM; N = 2
# T12 construct: purchased Upstate
# Description: as §1
# [13] = target: T13, PKCθ(h) (Homo sapiens, UniProt Q04759); assay: Kinase selectivity screen (Upstate); format: biochemical; conditions: 10 μM compound; ATP 15 μM; N = 2
# T13 construct: purchased Upstate
# Description: as §1
# [14] = target: T14, cKit(h) (Homo sapiens, UniProt P10721); assay: Kinase selectivity screen (Upstate); format: biochemical; conditions: 10 μM compound; ATP 200 μM; N = 2
# T14 construct: purchased Upstate
# T14 sequence (P10721 26-976): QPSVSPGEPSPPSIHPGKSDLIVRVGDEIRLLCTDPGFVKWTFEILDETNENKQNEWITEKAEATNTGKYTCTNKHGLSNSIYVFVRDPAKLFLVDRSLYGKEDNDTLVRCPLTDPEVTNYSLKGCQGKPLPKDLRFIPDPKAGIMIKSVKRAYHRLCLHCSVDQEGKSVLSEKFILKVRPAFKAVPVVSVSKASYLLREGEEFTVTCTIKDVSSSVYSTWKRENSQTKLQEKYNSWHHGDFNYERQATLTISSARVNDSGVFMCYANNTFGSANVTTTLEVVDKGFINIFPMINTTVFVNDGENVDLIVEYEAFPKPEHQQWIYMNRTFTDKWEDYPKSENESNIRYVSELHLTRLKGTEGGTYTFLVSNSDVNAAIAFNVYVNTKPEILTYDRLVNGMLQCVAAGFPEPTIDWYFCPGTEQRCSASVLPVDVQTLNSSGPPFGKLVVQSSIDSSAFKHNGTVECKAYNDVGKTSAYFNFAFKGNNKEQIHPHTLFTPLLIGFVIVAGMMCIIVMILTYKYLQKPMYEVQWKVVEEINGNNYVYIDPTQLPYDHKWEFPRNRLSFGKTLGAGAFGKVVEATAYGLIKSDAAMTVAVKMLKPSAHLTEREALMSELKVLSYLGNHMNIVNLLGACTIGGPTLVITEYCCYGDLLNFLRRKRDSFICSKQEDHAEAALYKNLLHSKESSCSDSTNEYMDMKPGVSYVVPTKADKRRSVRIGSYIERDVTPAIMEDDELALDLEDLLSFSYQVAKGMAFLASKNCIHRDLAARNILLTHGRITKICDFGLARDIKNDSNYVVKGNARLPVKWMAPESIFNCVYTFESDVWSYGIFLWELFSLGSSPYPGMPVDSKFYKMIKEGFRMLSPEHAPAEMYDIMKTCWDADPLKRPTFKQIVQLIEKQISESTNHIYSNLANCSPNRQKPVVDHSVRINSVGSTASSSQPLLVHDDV
# Description: as §1
# [15] = target: T15, cSRC(h) (Homo sapiens, UniProt P12931); assay: Kinase selectivity screen (Upstate); format: biochemical; conditions: 10 μM compound; ATP 200 μM; N = 2
# T15 construct: purchased Upstate
# Description: as §1
# [16] = target: T16, Pim-1(h) (Homo sapiens, UniProt P11309); assay: Kinase selectivity screen (Upstate); format: biochemical; conditions: 10 μM compound; ATP 90 μM; N = 2
# T16 construct: purchased Upstate
# Description: as §1
# [17] = target: T17, MAPK2(h) (Homo sapiens, UniProt P28482); assay: Kinase selectivity screen (Upstate); format: biochemical; conditions: 10 μM compound; ATP 155 μM; N = 2
# T17 construct: purchased Upstate
# T17 sequence (P28482 whole entry): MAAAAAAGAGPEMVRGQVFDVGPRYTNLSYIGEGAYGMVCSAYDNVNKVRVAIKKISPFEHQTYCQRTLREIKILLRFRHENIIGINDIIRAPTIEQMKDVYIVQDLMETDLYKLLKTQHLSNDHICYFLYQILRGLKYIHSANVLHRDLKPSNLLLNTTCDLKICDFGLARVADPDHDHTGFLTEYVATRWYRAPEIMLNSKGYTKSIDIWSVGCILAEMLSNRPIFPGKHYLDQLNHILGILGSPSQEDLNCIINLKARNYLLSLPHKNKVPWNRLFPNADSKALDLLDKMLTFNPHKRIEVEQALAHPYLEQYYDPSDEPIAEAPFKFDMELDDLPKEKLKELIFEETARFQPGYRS
# Description: as §1
# [18] = target: T18, KDR(h) (Homo sapiens, UniProt P35968); assay: Kinase selectivity screen (Upstate); format: biochemical; conditions: 10 μM compound; ATP 90 μM; N = 2
# T18 construct: purchased Upstate
# Description: as §1
# [19] = target: T19, Fms(h) (Homo sapiens, UniProt P07333); assay: Kinase selectivity screen (Upstate); format: biochemical; conditions: 10 μM compound; ATP 200 μM; N = 2
# T19 construct: purchased Upstate
# Description: as §1
# [20] = target: T20, IGF-1R(h) (Homo sapiens, UniProt P08069); assay: Kinase selectivity screen (Upstate); format: biochemical; conditions: 10 μM compound; ATP 200 μM; N = 2
# T20 construct: purchased Upstate
# Description: as §1
# [21] = target: T21, JNK1α1(h) (Homo sapiens, UniProt P45983); assay: Kinase selectivity screen (Upstate); format: biochemical; conditions: 10 μM compound; ATP 45 μM; N = 2
# T21 construct: purchased Upstate
# Description: as §1
# [22] = target: T22, Flt3(h) (Homo sapiens, UniProt P36888); assay: Kinase selectivity screen (Upstate); format: biochemical; conditions: 10 μM compound; ATP 200 μM; N = 2
# T22 construct: purchased Upstate
# Description: as §1
# [23] = target: T23, CHK2(h) (Homo sapiens, UniProt O96017); assay: Kinase selectivity screen (Upstate); format: biochemical; conditions: 10 μM compound; ATP 70 μM; N = 2
# T23 construct: purchased Upstate
# T23 sequence (O96017 whole entry): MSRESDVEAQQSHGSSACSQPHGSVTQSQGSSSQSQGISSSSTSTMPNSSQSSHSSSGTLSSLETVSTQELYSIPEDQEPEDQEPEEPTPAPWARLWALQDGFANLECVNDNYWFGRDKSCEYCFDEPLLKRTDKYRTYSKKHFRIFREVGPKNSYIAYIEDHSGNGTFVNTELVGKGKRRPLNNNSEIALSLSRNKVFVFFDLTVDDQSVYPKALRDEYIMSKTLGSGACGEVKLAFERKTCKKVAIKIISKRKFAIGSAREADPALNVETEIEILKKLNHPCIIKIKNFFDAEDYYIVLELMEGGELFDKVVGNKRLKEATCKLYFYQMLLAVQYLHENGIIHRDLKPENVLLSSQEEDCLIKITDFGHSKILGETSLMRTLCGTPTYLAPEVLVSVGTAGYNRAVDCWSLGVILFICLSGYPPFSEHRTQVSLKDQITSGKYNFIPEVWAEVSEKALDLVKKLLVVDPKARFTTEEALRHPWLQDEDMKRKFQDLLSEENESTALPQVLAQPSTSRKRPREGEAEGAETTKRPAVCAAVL
# Description: as §1
# [24] = target: T24, PKA(h) (Homo sapiens, UniProt P17612); assay: Kinase selectivity screen (Upstate); format: biochemical; conditions: 10 μM compound; ATP 10 μM; N = 2
# T24 construct: purchased Upstate
# Description: as §1
# [25] = target: T25, MEK1(h) (Homo sapiens, UniProt Q02750); assay: Kinase selectivity screen (Upstate); format: biochemical; conditions: 10 μM compound; ATP 10 μM; N = 2
# T25 construct: purchased Upstate
# Description: as §1
# [26] = system: other kinases; assay: Kinase selectivity screen (Upstate), panel as a whole; format: biochemical, human; conditions: 10 μM compound; summary of Table 5
# Description: as §1
smiles,measurement,setting,value
"CN(C)CCCOc1ccc(Cl)cc1NC(=O)Nc1ccc(C#N)cn1 [Example 4B, 1-[5-Chloro-2-(3-dimethylamino-propoxy)-phenyl]-3-(5-cyano-pyridin-2-yl)-urea]",IC50,[1],279 nM
same,IC50,[2],130 nM
same,IC50,[3],445 nM
"Cc1cnc(NC(=O)Nc2cc(Cl)ccc2OCCCN(C)C)cn1 [Example 2B, 1-[5-Chloro-2-(3-dimethylamino-propoxy)-phenyl]-3-(5-methyl-pyrazin-2-yl)-urea]",IC50,[1],51 nM
same,IC50,[2],610 nM
same,IC50,[3],2980 nM
"Cc1cnc(NC(=O)Nc2cc(Cl)ccc2OCCC[N+](C)(C)[O-])cn1 [Example 2C, 1-[5-Chloro-2-(3-dimethyloxyamino-propoxy)-phenyl]-3-(5-methyl-pyrazin-2-yl)-urea]",IC50,[1],128 nM
same,IC50,[2],> 30000 nM
same,HERG Binding % @ 100 uM (extent of binding),[3],3% @ 100 uM
C[N+](C)([O-])CCCOc1ccc(Cl)cc1NC(=O)Nc1cnccn1 [Example 1F],IC50,[1],71 nM
same,IC50,[2],26700 nM
same,HERG Binding % @ 100 uM (extent of binding),[3],35% @ 100 uM
same,inhibition at 10 µM,[4],5%
same,inhibition at 10 µM,[5],0%
same,inhibition at 10 µM,[6],0%
same,inhibition at 10 µM,[7],0%
same,inhibition at 10 µM,[8],92%
same,inhibition at 10 µM,[9],1%
same,inhibition at 10 µM,[10],14%
same,inhibition at 10 µM,[11],11%
same,inhibition at 10 µM,[12],0%
same,inhibition at 10 µM,[13],37%
same,inhibition at 10 µM,[14],0%
same,inhibition at 10 µM,[15],11%
same,inhibition at 10 µM,[16],0%
same,inhibition at 10 µM,[17],0%
same,inhibition at 10 µM,[18],38%
same,inhibition at 10 µM,[19],12%
same,inhibition at 10 µM,[20],36%
same,inhibition at 10 µM,[21],0%
same,inhibition at 10 µM,[22],73%
same,inhibition at 10 µM,[23],71%
same,inhibition at 10 µM,[24],0%
same,inhibition at 10 µM,[25],0%
same,"activity against most other kinases apart from CHK2, FGFR1 and Flt3",[26],largely inactive or only poorly active
"CN(C)CCCOc1ccc(Cl)cc1NC(=O)Nc1cnccn1 [Example 1C, 1-[5-Chloro-2-(3-dimethyloxyamino-propoxy)-phenyl]-3-pyrazin-2-yl-urea]",IC50,[1],41 nM
same,IC50,[2],108 nM
same,IC50,[3],5030 nM
"CN(C)CCCOc1ccc(Cl)cc1NC(=O)Nc1cnc(C#N)cn1 [Example 3B, 1-[5-Chloro-2-(3-dimethylamino-propoxy)-phenyl]-3-(5-cyano-pyrazin-2-yl)-urea]",IC50,[1],< 10 nM
same,IC50,[2],435 nM
same,IC50,[3],5120 nM
"C[N+](C)([O-])CCCOc1ccc(Cl)cc1NC(=O)Nc1cnc(C#N)cn1 [Example 3C, 1-[5-Chloro-2-(3-dimethyloxyamino-propoxy)-phenyl]-3-(5-cyano-pyrazin-2-yl)-urea]",IC50,[1],24 nM
same,IC50,[2],16300 nM
same,HERG Binding % @ 100 uM (extent of binding),[3],46% @ 100 uM
"C[N+](C)([O-])CCCOc1ccc(Cl)cc1NC(=O)Nc1ccc(C#N)cn1 [Example 4C, 1-[5-Chloro-2-(3-dimethyloxylamino-propoxy)-phenyl]-3-(5-cyano-pyridin-2-yl)-urea]",IC50,[1],581 nM
same,IC50,[2],2440 nM
same,IC50,[3],7670 nM
